# Entries after “also recorded” stand apart in the source; their conditions may differ.
# Legend:
# [1] = test system: Blata orientalis; test: Efficacy of Permethrin delivered in reduced fatty acid Reactive Emulsion, spray (Example 12); type: in vivo, Oriental Cockroach; conditions: emulsion concentrates diluted to 5% in water, where present, 0.1%
# Procedure: Permethrin was added to the oil phase at 2 grams in 20 of total oil (oil phase) which is 2% of the concentrated reactive emulsion. For use in the test the concentrate was diluted to 5% in water, that is 1% oil phase containing 0.1% Permethrin (10% of recommended dose).
# A Reactive Emulsion control was prepared using the formulation in Table 13 by replacing Permethrin with Miglyol at 15% and free fatty acid at 5%.
# (§1) The Oriental Cockroach Blata Orientalis was used to evaluate the efficacy of the non-reactive emulsion and the experimental design was the same as in Example 1. Individual insects were lifted with tweezers and sprayed with either non-reactive test formulation, positive control or water blank, ten insects in each case, and evaluated after 1 hour and 10 hours.
# [2] = test system: lice; conditions: approved by FDA as a 1% solution; cited from earlier work
# [3] = Solubility and solution properties; conditions: for solubility: water or oil
# Procedure: An aqueous dispersion of de-lipidised lecithin and DPPG is prepared by blending the component with water at the desired concentration and allowing at least one hour to fully hydrate.
# Both of these are water soluble and may be added to the water phase of either the emulsion concentrate or the diluted suspension.
# [4] = test system: Blata orientalis; test: Efficacy of NAC and PCA supplemented Reactive Emulsions, spray (Example 13); type: in vivo, Oriental Cockroach; conditions: 50 mM citrate buffer, NAC or PCA 0.1%, emulsion 5% where present; for Alive / Immobile / Moribund: ten insects
# Procedure: In one embodiment of the present invention, Reactive Emulsions of this invention are acidic and are kept at or below pH 5.5 to retain reactivity. For this reason 0.1% W/W solutions of NAC and PCA were prepared in 50 mM sodium citrate buffer at pH 5.0 and reduced fatty acid Reactive Emulsion concentrate (Table 15) was added to these at 5% by weight.
# NAC and PCA controls were prepared by dissolving 0.1% of each in 50 mM sodium citrate buffer • reduced fatty acid Reactive Emulsions were used to illustrate the additive effect of NAC and PCA because the rate of activity of higher concentration fatty acid Emulsions would swamp the effect.
# A 5% by weight suspension of Emulsion concentrate was prepared in 50 mM sodium citrate buffer without either NAC or PCA was prepared as a negative control and 50 mM buffer on its own was used as a blank.
# as §1, with “the NAC and PCA supplemented reactive” for “the non-reactive”, “either NAC or PCA supplemented” for “either non-reactive”, “test formulations, negative” for “test formulation, positive”, “or buffer” for “or water”
# [5] = Stability of aqueous dispersions of components; type: physicochemical; conditions: laboratory homogeniser dispersion in water
# [6] = test system: Blata orientalis; test: Evaluation of insecticidal effect of individual components (Example 9); type: in vivo, Oriental cockroach; conditions: 0.3 grams on back, pairs; for Alive: weight %: caprylic acid 0.8, Miglyol 0.2, Tween 80 0.015, lecithin 0.15, DPPG 0.12, xanthan gum 0.0075; for Dead: caprylic acid 0.8, Emulsion Table 1 5.0 weight %
# Procedure: In order to evaluate the effect of individual components, the higher concentration of each was used, these are marked with an asterisk as presented in Table 9
# The cockroach Blata orientalis was used as described in Example 1 part 3 because of its size, ease of application and predictable response to the formulation.
# Pairs of insects were treated by applying 0.3 grams (ml) of test items from Table 9 above directly onto their backs following which individual insects were placed in separate plastic containers and observed over a period of one hour and overnight. A 5% aqueous dispersion of the emulsion from Table 1 and sterile distilled water were used as controls.
# [7] = test system: hematophagous insects; conditions: cited from earlier work
Structure (SMILES),solubility [3],Alive ([4]; 1 hour),Immobile ([4]; 1 hour),Moribund ([4]; 1 hour),"Mortality / efficacy ([4]; 10 hours, 600 min)",Alive ([4]; 10 hours),Immobile ([4]; 10 hours),Moribund ([4]; 10 hours),stability of aqueous dispersion [5],Alive ([6]; 1 hour post treatment),Alive ([6]; 18 hours post treatment),further results
CC1(C)C(C=C(Cl)Cl)C1C(=O)OCc1cccc(Oc2ccccc2)c1 (centres unmarked) [Permethrin],sparingly soluble in water; also recorded: basically oil soluble,,,,,,,,,,,"Mortality ([1]; 1 hour): 0%; Alive ([1]; 1 hour, ten insects): 10; Mortality / efficacy ([1]; 10 hours, 600 min): 30%; Alive ([1]; 10 hours, ten insects): 7; Immobile ([1]; 10 hours, ten insects): 0; Moribund ([1]; 10 hours, ten insects): 3; effectiveness against lice [2]: effective against adult lice but not their eggs"
"O=C1CCC(C(=O)O)N1 (centres unmarked) [Pyrrolidone Carboxylic Acid, 2-Pyrrolidone-5-Carboxylic Acid]",,10,0,0,20%,8,0,2,,,,"Mortality / efficacy ([4]; 1 hour): 0%; Mortality / efficacy ([4]; 10 hours, listed as PCA, 600 min): 20%"
CCCCCCCC(=O)O [Caprylic acid],,,,,,,,,co-acervate and settle out within minutes of being formed,2,1,"Dead ([6]; 18 hours post treatment): 1; Dead ([6]; 18 hours post treatment, listed as caprylic acid): one"
"CC(=O)N[C@@H](CS)C(=O)O [N-acetyl Cysteine, N-Acetyl Cysteine]",water soluble,10,0,0,10%,9,1,0,,,,"Mortality / efficacy ([4]; 1 hour, 60 min): 0%; Mortality / efficacy ([4]; 1 hour, listed as NAC): no effect; Mortality / efficacy ([4]; 10 hours, listed as NAC, 600 min): 10%; pH in solution ([3]; in solution): slightly basic pH in solution"
CCC(C)OC(=O)N1CCCCC1CCO (centres unmarked) [Picaridin],,,,,,,,,,,,repellent effect [7]: broad spectrum effects combined with low toxicity
"CCCCCCCCCCCCCCCC(=O)OCC(COP(=O)(O)OCC(O)CO)OC(=O)CCCCCCCCCCCCCCC (centres unmarked) [DPPG, di-palmitoyl phosphatidyl glycerol]",,,,,,,,,tendency to settle out,2,2,
